From ChEMBL document CHEMBL1926604, “Design and synthesis of pyridin-2-ylmethylaminopiperidin-1-ylbutyl amide CCR5 antagonists that are potent inhibitors of M-tropic (R5) HIV-1 replication” (Bioorg Med Chem Lett, 2011)

Key:
[1] = Cytotoxic activity against human PBMC assessed as reduction in cell viability; type: cell-based
[2] = test system: Human immunodeficiency virus 1; experiment: Antiviral activity against R5 tropic Human immunodeficiency virus 1 BAL infected in human PBMC cells assessed as reduction in viral replication by p24 detection based ELISA; type: functional, organism-based
[3] = Plasma protein binding in human plasma at 1 uM after 5 hrs by LC-MS/MS analysis; type: ADME, cell-free; conditions: read-out: PPB (converted)

Structure (SMILES) | CC50 [1] | IC50 [2] | fraction unbound at 5 h, 1 µM [3]
CC(CCNC(=O)c1c(Cl)cncc1Cl)N1CCC(N(Cc2ccc(Cl)cc2)c2ccc(Br)cc2)CC1 (stereo not drawn) | 4.3 µM | > 1.3 µM | –
COCCOc1ccc(N(Cc2cnccc2C)C2CCN([C@H](C)CCNC(=O)c3c(C)cc(C#N)nc3C)CC2)cc1 | > 32.6 µM | 0.0323 µM | 0.08
CC(CCNC(=O)c1c(Cl)cncc1Cl)N1CCC(N(Cc2ccccc2)c2ccc(C(F)(F)F)cc2)CC1 (stereo not drawn) | 8.1 µM | 0.11 µM | –
COc1ccc(N(Cc2ccccc2)C2CCN(C(C)CCNC(=O)c3c(Cl)cncc3Cl)CC2)cc1 (stereo not drawn) | 36.5 µM | 2.17 µM | –
Cc1ccncc1CN(c1ccccc1)C1CCN([C@H](C)CCNC(=O)c2c(C)cc(C#N)nc2C)CC1 | – | – | 0.06
CC(CCNC(=O)c1c(Cl)cncc1Cl)N1CCC(N(Cc2ccccc2)c2ccc(C#N)cc2)CC1 (stereo not drawn) | 9.7 µM | 0.38 µM | –
COc1ccc(N(Cc2cccc(C#N)c2)C2CCN(C(C)CCNC(=O)c3c(Cl)cncc3Cl)CC2)cc1 (stereo not drawn) | > 1.76 µM | 0.014 µM | –
COc1ccc(N(Cc2cnccc2C)C2CCN([C@H](C)CCNC(=O)c3c(C)cc(C#N)nc3C)CC2)cc1 | > 34.8 µM | 0.0254 µM | 0.02
CC(CCNC(=O)c1c(Cl)cncc1Cl)N1CCC(N(Cc2cccc(C#N)c2)c2ccc(Br)cc2)CC1 (stereo not drawn) | 6.7 µM | 0.089 µM | –
COc1ccc(N(Cc2cccc(C#N)n2)C2CCN([C@H](C)CCNC(=O)c3c(C)cc(C#N)nc3C)CC2)cc1 | > 36.3 µM | 0.0039 µM | 0.09
CC(CCNC(=O)c1c(Cl)cncc1Cl)N1CCC(N(Cc2ccccc2Cl)c2ccc(Br)cc2)CC1 (stereo not drawn) | 5.7 µM | > 1.25 µM | –
CC(CCNC(=O)c1c(Cl)cncc1Cl)N1CCC(N(Cc2ccccc2)c2ccc(C(=O)N(C)C)cc2)CC1 (stereo not drawn) | > 30 µM | 9.63 µM | –
CC(CCNC(=O)c1c(Cl)cncc1Cl)N1CCC(N(Cc2ccccc2)c2ccc(OC(F)(F)F)cc2)CC1 (stereo not drawn) | 4 µM | 0.059 µM | –
COc1ccc(N(Cc2cccnc2)C2CCN([C@H](C)CCNC(=O)c3c(C)cc(F)nc3C)CC2)cc1 | > 36.7 µM | 0.0296 µM | 0.14
COc1ccc(N(Cc2cccc(C#N)n2)C2CCN([C@H](C)CCNC(=O)c3c(C)cc(F)nc3C)CC2)cc1 | > 35.8 µM | 0.0036 µM | 0.21
CC(CCNC(=O)c1c(Cl)cncc1Cl)N1CCC(N(Cc2cccc(C#N)c2)c2ccc(C(F)(F)F)cc2)CC1 (stereo not drawn) | 12.3 µM | 0.001 µM | –
COc1cccc(CN(c2ccc(Br)cc2)C2CCN(C(C)CCNC(=O)c3c(Cl)cncc3Cl)CC2)c1 (stereo not drawn) | 6.4 µM | 2.88 µM | –
Cc1ccncc1CN(c1ccc(OCC(N)=O)cc1)C1CCN([C@H](C)CCNC(=O)c2c(C)cc(C#N)nc2C)CC1 | > 34.3 µM | 0.0033 µM | 0.11
COc1ccc(N(Cc2cnccc2C)C2CCN([C@H](C)CCNC(=O)c3c(C)cncc3C)CC2)cc1 | > 38.8 µM | 11.5 µM | –
CC(CCNC(=O)c1c(Cl)cncc1Cl)N1CCC(N(Cc2ccccc2)c2ccc(Br)cc2)CC1 (stereo not drawn) | – | 0.22 µM | –
COc1ccc(N(Cc2cnccc2C)C2CCN([C@H](C)CCNC(=O)c3c(C)ccnc3C)CC2)cc1 | > 38.9 µM | 1.04 µM | 0.05
Cc1ccncc1CN(c1ccc([S+](C)[O-])cc1)C1CCN([C@H](C)CCNC(=O)c2c(C)ncnc2C)CC1 (stereo partly drawn) | > 32.4 µM | > 32.1 µM | –
CC(CCNC(=O)c1c(Cl)cncc1Cl)N1CCC(N(Cc2cccc(C#N)c2)c2ccc(C#N)cc2)CC1 (stereo not drawn) | 33.6 µM | 0.376 µM | –
CC(CCNC(=O)c1c(Cl)cncc1Cl)N1CCC(N(Cc2cccc(Cl)c2)c2ccc(Br)cc2)CC1 (stereo not drawn) | 7.3 µM | 0.4 µM | –
COC(=O)c1ccc(N(Cc2ccccc2)C2CCN(C(C)CCNC(=O)c3c(Cl)cncc3Cl)CC2)cc1 (stereo not drawn) | 21.4 µM | 0.177 µM | –
COCCOc1ccc(N(Cc2cnccc2C)C2CCN([C@H](C)CCNC(=O)c3c(C)cc(F)nc3C)CC2)cc1 | > 32.7 µM | 0.0231 µM | 0.19
